# Results taken from patent US20240010606A1, “FUMARATE DERIVATIVES AND THEIR MEDICAL USE” (Sitryx Therapeutics Limited, priority 2020, published 2024).
# How the values were obtained:
# [1] = Hepatocyte stability assay, human; assay type: in vitro ADME; settings: cryopreserved hepatocytes, 10 μM compound
# Description: (§1) Biological Example 3—Hepatocyte Stability Assay
# (§2) Defrosted cryo-preserved hepatocytes (viability >70%) are used to determine the metabolic stability of a compound via calculation of intrinsic clearance (CIint; a measure of the removal of a compound from the liver in the absence of blood flow and cell binding). Clearance data are particularly important for […] as they can be used in combination with in vivo data to predict the half-life and oral bioavailability of a drug.
# (§3) The metabolic stability in hepatocytes assay involves a time-dependent reaction using both positive and negative controls. The cells must be pre-incubated at 37° C. then spiked with test compound (and positive control); samples taken at pre-determined time intervals are analysed to monitor the change in concentration of the initial drug compound over 60 minutes. A buffer incubation reaction (with no hepatocytes present) acts as a negative control and two cocktail solutions, containing compounds with known high and low clearance values (verapamil/7-hydroxycoumarin and propranolol/diltiazem), act as positive controls. • 1. The assay is run with a cell concentration of 0.5×10^6 cells/mL in Leibovitz buffer. • 2. All compounds and controls are run in duplicate. • 3. Compound concentration is 10 μM. • 4. All compounds and controls are incubated with both cells and buffer to show turnover is due to hepatic metabolism. • 5. All wells on the incubation plate will have 326.7 μL of either cells or buffer added. • 6. Prior to assay, cell and buffer-only incubation plates are preincubated for 10 mins at 37° C. • 7. The assay is initiated by adding compounds, 3.3 μL of 1 mM in 10% DMSO-90% Buffer; final DMSO concentration is 0.1%. • 8. Samples are taken at regular timepoints (0, 5, 10, 20, 40, 60 min) until 60 mins. • 9. Sample volume is 40 μL and it is added to 160 μL of crash solvent (acetonitrile with internal standard) and stored on ice. • 10. At the end of the assay, the crash plates are centrifuged at 3500 rpm for 20 mins at 4° C. • 11. 80 μL of clear supernatant is removed and mixed with 80 μL of deionised water before being analysed by LC-MS/MS.
# (§4) Raw LC-MS/MS data are exported to, and analysed in, Microsoft Excel for determination of intrinsic clearance. The percentage remaining of a compound is monitored using the peak area of the initial concentration as 100%. Intrinsic clearance and half-life values are calculated using a graph of the natural log of percentage remaining versus the time of reaction in minutes. Half-life (min) and intrinsic clearance (CIint in μL min^−1 10^−6 cells) values are calculated using the gradient of the graph (the elimination rate constant, k) and Equations 1 and 2.
# hepatocytes [2] = test: Hepatocyte stability assay, human; assay type: in vitro ADME; settings: 10 μM compound
# Description: as §1, §2, §3, §4
# IL-1β = test: THP-1 AlphaLISA IL-1β cytokine assay; assay type: cell-based; settings: Homo sapiens, differentiated THP-1 cells
# Description: (§5) Biological Example 1—THP-1 AlphaLISA IL-1β and IL-6 Cytokine Assay Measuring Inhibitory Effects on IL-1, and IL-6 Cytokine Output from THP-1s The cytokine inhibition profiles of compounds of formula (I) were determined in a differentiated THP-1 cell assay. All assays were performed in RPMI-1640 growth medium (Gibco), supplemented with 10% fetal bovine serum (FBS; Gibco), 1% penicillin-streptomycin and 1% sodium pyruvate unless specified otherwise. The IL-1β and IL-6 cytokine inhibition assays were each run in a background of differentiated THP-1 cells as described below. All reagents described were from Sigma-Aldrich unless specified otherwise. Compounds were prepared as 10 mM DMSO stocks. THP-1 cells were expanded as a suspension up to 80% confluence in appropriate growth medium. Cells were harvested, suspended, and treated with an appropriate concentration of phorbol 12-myristate 13-acetate (PMA) over a 72 hr period (37° C./5% CO2). Following 72 hrs of THP-1 cell incubation, cellular medium was removed and replaced with fresh growth media containing 1% of FBS. Working concentrations of compounds were prepared separately in 10% FBS treated growth medium and pre-incubated with the cells for 30 minutes (37° C./5% CO2). Following the 30 minute compound pre-incubation, THP-1s were treated with an appropriate concentration of LPS and the THP-1s were subsequently incubated for a 24 hr period (37° C./5% CO2). An appropriate final concentration of Nigericin was then dispensed into the THP-1 plates and incubated for 1 hour (37° C./5% CO2) before THP-1 supernatants were harvested and collected in separate polypropylene 96-well holding plates. Reagents from each of the IL-1β and IL-6 commercial kits (Perkin Elmer) were prepared and run according to the manufacturer's instructions. Subsequently, fluorescence signal detection in a microplate reader was measured (EnVision® Multilabel Reader, Perkin Elmer). Percentage inhibition was calculated per cytokine by normalizing the sample data to the high and low controls used within each plate (+/−LPS respectively). Percentage inhibition was then plotted against compound concentration and the 50% inhibitory concentration (IC50) was determined from the resultant concentration-response curve.
# [3] = Hepatocyte stability assay, mouse; assay type: in vitro ADME; settings: mouse, cryopreserved hepatocytes, 10 μM compound
# Description: as §1, §2, §3, §4
# hepatocytes [4] = test: Hepatocyte stability assay, mouse; assay type: in vitro ADME; settings: 10 μM compound
# Description: as §1, §2, §3, §4
# IL-6 = test: THP-1 AlphaLISA IL-6 cytokine assay; assay type: cell-based; settings: Homo sapiens, THP-1, differentiated THP-1 cells; Table 2, compounds of formula (II)
# Description: as §5
# NRF2 = NRF2 activation assay (DiscoverX PathHunter NRF2 translocation kit, U2OS cells); assay type: cell-based
# Description: Biological Example 2—NRF2 Activation Assay Measuring Compound Activation Effects on the Anti-Inflammatory Transcription Factor NRF2 in DiscoverX PathHunter NRF2 Translocation Kit Potency and efficacy of compounds of formula (I) against the target of interest to activate NRF2 (nuclear factor erythroid 2-related factor 2) were determined using the PathHunter NRF2 translocation kit (DiscoverX). The NRF2 translocation assay was run using an engineered recombinant cell line, utilising enzyme fragment complementation to determine activation of the Keap1-NRF2 protein complex and subsequent translocation of NRF2 into the nucleus. Enzyme activity was quantified using a chemiluminescent substrate consumed following the formation of a functional enzyme upon PK-tagged NRF2 translocation into the nucleus. Additionally, a defined concentration of dimethyl fumarate was used as the ‘High’ control to normalise test compound activation responses to. U2OS PathHunter eXpress cells were thawed from frozen prior to plating. Following plating, U2OS cells were incubated for 24 hrs (37° C./5% CO2) in commercial kit provided cell medium. Following 24 hrs of U2OS incubation, cells were directly treated with an appropriate final concentration of compound. Following compound treatment, the U2OS plates were incubated for a further 6 hours (37° C./5% CO2) before detection reagent from the PathHunter NRF2 commercial kit was prepared and added to test plates according to the manufacturer's instructions. Subsequently, the luminescence signal detection in a microplate reader was measured (PHERAstar®, BMG Labtech). Percentage activation was calculated by normalising the sample data to the high and low controls used within each plate (+/−DMF). Percentage activation/response was then plotted against compound concentration and the 50% activation concentration (EC50) was determined from the plotted concentration-response curve.
# [5] = Table 2, compounds of formula (II)
# [6] = +GSH, normalised to dimethyl fumarate high control, Table 3
# [7] = −GSH, normalised to dimethyl fumarate high control, Table 3
# [8] = +GSH, Table 4, compounds of formula (II)
# [9] = −GSH, Table 4, compounds of formula (II)
"EC50 (NRF2; +GSH, Table 3) [µM]","EC50 (NRF2; −GSH, Table 3) [µM]","half-life at 10 μM ([1]; Table 5, read-out: T½) [min]",CIint (hepatocytes [2]; Table 5),"IC50 (IL-1β; LPS then Nigericin, Table 1) [µM]","half-life at 10 μM ([3]; Table 5, read-out: T½) [min]",CIint (hepatocytes [4]; Table 5),Structure (SMILES),"half-life at 10 μM ([1]; Table 6, read-out: T½) [min]",CIint (hepatocytes [2]; Table 6),IC50 (IL-1β; [5]) [µM],"half-life at 10 μM ([3]; Table 6, read-out: T½) [min]",CIint (hepatocytes [4]; Table 6),IC50 (IL-6) [µM],NRF2 activation Emax (NRF2; [6]),NRF2 activation Emax (NRF2; [7]),EC50 (NRF2; [8]) [µM],NRF2 activation Emax (NRF2; [8]),EC50 (NRF2; [9]) [µM],NRF2 activation Emax (NRF2; [9])
–,–,–,–,–,–,–,"O=C(O)/C=C/C(=O)OC1(c2ccc(C(F)(F)F)cc2)CSC1 [Intermediate 17, (E)-4-oxo-4-((3-(4-(trifluoromethyl)phenyl)thietan-3-yl)oxy)but-2-enoic acid]",5 to 29,++ (++ means >30-110),6 to 30,5 to 29,+ (+ means >110-277),6 to 30,–,–,–,–,–,–
–,–,–,–,–,–,–,"C[C@H]1C[C@](OC(=O)/C=C/C(=O)O)(c2ccc(C(F)(F)F)cc2)C1 (single isomer, unassigned) [Intermediate 33, (E)-4-((cis)-3-methyl-1-(4-(trifluoromethyl)phenyl)cyclobutoxy)-4-oxobut-2-enoic acid]",> 100,++++ (++++ means 5-15),< 6,30 to 100,+++ (+++ means >15-30),< 6,–,–,–,–,–,–
–,–,–,–,–,–,–,"O=C(O)/C=C/C(=O)OC1(c2ccc(C(F)(F)F)cc2)CC(F)(F)C1 [Intermediate 32, (E)-4-(3,3-difluoro-1-(4-(trifluoromethyl)phenyl)cyclobutoxy)-4-oxobut-2-enoic acid]",30 to 100,+++ (+++ means >15-30),< 6,30 to 100,+++ (+++ means >15-30),< 6,–,–,–,–,–,–
–,–,–,–,–,–,–,"O=C(O)/C=C/C(=O)OC1(c2cc(Cl)cc(OC(F)(F)F)c2)CCC1 [Intermediate 41, (E)-4-(1-(3-chloro-5-(trifluoromethoxy)phenyl)cyclobutoxy)-4-oxobut-2-enoic acid]",> 100,++++ (++++ means 5-15),6 to 30,30 to 100,++ (++ means >30-110),6 to 30,–,–,–,–,–,–
–,–,–,–,–,–,–,"O=C(O)/C=C/C(=O)OC1(c2cc(F)c(C(F)(F)F)c(F)c2)CCC1 [Intermediate 29, (E)-4-(1-(3,5-difluoro-4-(trifluoromethyl)phenyl)cyclobutoxy)-4-oxobut-2-enoic acid]",> 100,++++ (++++ means 5-15),< 6,30 to 100,+++ (+++ means >15-30),< 6,–,–,–,–,–,–
6 to 20,< 2,> 100,++++ (++++ means <50),< 2.5,< 5,+ (+ means >277),"C[C@@H](OC(=O)/C=C/C(=O)OC1CCCCCCC1)C(=O)O [Example 12, (R,E)-2-((4-(cyclooctyloxy)-4-oxobut-2-enoyl)oxy)propanoic acid]",–,–,–,–,–,–,++ (++ means 100-149),++++ (++++ means 200-250%),–,–,–,–
–,–,–,–,–,–,–,"O=C(O)/C=C/C(=O)OC1(c2ccc(C(F)(F)F)s2)CCC1 [Intermediate 36, (E)-4-oxo-4-(1-(5-(trifluoromethyl)thiophen-2-yl)cyclobutoxy)but-2-enoic acid]",> 100,++++ (++++ means 5-15),< 6,30 to 100,++ (++ means >30-110),–,–,–,< 23,++ (++ means >87-114%),< 23,+++ (+++ means >114-150%)
20 to 100,< 2,5 to 29,+++ (+++ means 50-149),< 2.5,< 5,+ (+ means >277),"O=C(/C=C/C(=O)OC1(C(=O)O)CC1)OC1CCCCCCC1 [Example 8, (E)-1-((4-(cyclooctyloxy)-4-oxobut-2-enoyl)oxy)cyclopropane-1-carboxylic acid]",–,–,–,–,–,–,++ (++ means 100-149),++++ (++++ means 200-250%),–,–,–,–
6 to 20,< 2,30 to 100,++++ (++++ means <50),< 2.5,5 to 10,++ (++ means 200-277),"C[C@H](OC(=O)/C=C/C(=O)OC1CCCCCCC1)C(=O)O [Example 6, (S,E)-2-((4-(cyclooctyloxy)-4-oxobut-2-enoyl)oxy)propanoic acid]",–,–,–,–,–,–,+ (+ means >17.1-99),++++ (++++ means 200-250%),–,–,–,–
–,–,–,–,–,–,–,"O=C(O)/C=C/C(=O)OC1CC2(CCC2)C1 [Intermediate 7, (E)-4-oxo-4-(spiro[3.3]heptan-2-yloxy)but-2-enoic acid]",30 to 100,+++ (+++ means >15-30),6 to 30,5 to 29,++ (++ means >30-110),–,–,–,< 23,+++ (+++ means >114-150%),< 23,++++ (++++ means >150%)

Structure (SMILES),"EC50 (NRF2; +GSH, Table 3) [µM]","EC50 (NRF2; −GSH, Table 3) [µM]","half-life at 10 μM ([1]; Table 5, read-out: T½) [min]",CIint (hepatocytes [2]; Table 5),"IC50 (IL-1β; LPS then Nigericin, Table 1) [µM]","half-life at 10 μM ([3]; Table 5, read-out: T½) [min]",CIint (hepatocytes [4]; Table 5),"half-life at 10 μM ([1]; Table 6, read-out: T½) [min]",CIint (hepatocytes [2]; Table 6),IC50 (IL-1β; [5]) [µM],"half-life at 10 μM ([3]; Table 6, read-out: T½) [min]",CIint (hepatocytes [4]; Table 6),IC50 (IL-6) [µM],NRF2 activation Emax (NRF2; [6]),NRF2 activation Emax (NRF2; [7]),EC50 (NRF2; [8]) [µM],NRF2 activation Emax (NRF2; [8]),EC50 (NRF2; [9]) [µM],NRF2 activation Emax (NRF2; [9])
"CCCCCC[C@@H](C)OC(=O)/C=C/C(=O)OCC(=O)O [Example 13, 2-[(E)-4-[(1R)-1-methylheptoxy]-4-oxo-but-2-enoyl]oxyacetic acid]",20 to 100,< 2,5 to 29,+++ (+++ means 50-149),2.5 to 6.1,< 5,+ (+ means >277),–,–,–,–,–,–,++ (++ means 100-149),+++ (+++ means 150-199%),–,–,–,–
